# Assay results taken from paper PMC8838521, “Antimicrobial, Cytotoxic and Mutagenic Activity of Gemini QAS Derivatives of 1,4:3,6-Dianhydro-L-iditol” (Molecules, 2022).
# Counter-ions that a name gives are not always drawn. Like-named read-outs stand apart in the source and are kept apart here.
# Experiments:
# [1] = system: Candida albicans ATCC 10231; test: Antimicrobial activity, microdilution MIC, C. albicans; format: cell-based; details: for MIC: Candida albicans, ATCC10231, 24 h
# Protocol: (§1) The antimicrobial potential of the tested agents was evaluated against two reference strains of bacteria: Staphylococcus aureus ATCC 25923 and Escherichia coli K12, two reference strains of pathogenic yeasts, Candida albicans ATCC10231 and Candida glabrata DSMZ11226, as well as 20 strains of clinical isolates of S. aureus collected from patients with skin and soft tissue infections (n = 8) and strains derived from subclinical bovine mastitis milk samples (n = 12). Four of these strains, two isolated from human infections and two isolated from bovine mastitis, were classified as MRSA (Methicillin-resistant Staphylococcus aureus). All of them were mecA positive and their methicillin resistance was confirmed with the disc diffusion assay. The remaining 16 strains were MSSA (Methicillin-sensitive Staphylococcus aureus). The assays were performed using a serial, two-fold dilution method in 96-well microtiter plates under conditions recommended by the Clinical and Laboratory Standards Institute (CLSI, Pittsburgh, PA, USA). The aim of this procedure was the determination of the MIC parameter (Minimum Inhibitory Concentration)—the minimum concentration of a tested agent capable to inhibit the growth of a specified strain of microorganism. The agents were solubilized in deionized, sterile water to a final concentration of […]. Subsequently, solutions were mixed (1:1 (v/v)) with 2 × concentrated liquid medium, Mueller-Hinton Broth 2—cation adjusted (MHB2) for evaluation of antibacterial activity and RPMI in the case of evaluation of the antifungal activity. […] Subsequently, the solutions were mixed with MHB2 or RPMI medium to get the final concentration of 8.192 mg/mL (8192 µg/mL). In the next step, the serial, two-fold dilutions of the tested agents (over the range of concentrations from 8192 to 8 µg/mL for reference strains of bacteria and yeasts and from 512 to 1.0 µg/mL for clinical isolates of S. aureus) were prepared in 96-well microtitration plates in the final volume of 100 μL of the appropriate medium.
# (§2) The pure cultures of yeast strains were grown on the Sabouraud Dextrose Agar (SDA) for 18–24 h at 37 °C. Suspensions of the microorganisms were prepared by taking one loop of pure culture into sterile water and adjusting optical density to 0.1 at 660 nm and further 50-fold dilution in RPMI 1640 medium resulting in cells concentration of approximate 2 × 10^4 CFU/mL. One hundred μL of that suspension was inoculated to the wells of the microtitration plate containing appropriate dilutions of the agents. The positive growth control of each strain (both bacteria and yeasts) was performed in the wells without the tested substances. The negative control containing only the media was included in each assay. Microtiter plates were incubated at 37 °C for 24 h. Following the incubation period, determination of the MIC values of the tested agents was carried out by measuring the absorbance at 531 nm using a Victor^3 microplate reader (Perkin Elmer, Inc., Waltham, MA, USA). The lowest concentration of the agent causing inhibition of growth equal to or higher than 90% (MIC90) of growth control was taken as the MIC value. Each test was repeated three times.
# [2] = system: Candida glabrata DSMZ 11226; test: Antimicrobial activity, microdilution MIC, C. glabrata; format: cell-based; details: for MIC: Nakaseomyces glabratus, DSMZ11226, 24 h
# Protocol: as §1, §2
# [3] = system: Staphylococcus aureus ATCC 25923; test: Antimicrobial activity, microdilution MIC, S. aureus reference strain; format: cell-based; details: for MIC: Staphylococcus aureus, ATCC25923, 24 h
# Protocol: as §1
# (§3) The pure bacterial cultures of (both the reference and clinical strains) were grown on the Mueller-Hinton Agar (MHA) for 18–24 h at 37 °C. A small amount of the biomass of the culture of each strain of microorganisms was suspended in the sterile PBS (phosphate buffered saline, pH 7.4 at 25 °C, purchased from Sigma) solution to get an optical density OD600 = 0.13 (equal to the cells concentration approximately 1 × 10^8 CFU/mL). The obtained suspensions of the cells were next diluted 1:100 (v/v) in the MHB2 medium. One hundred µL of the cells’ suspension was finally loaded into the wells of plates prepared in advance, which contained 100 µL of two-fold dilutions of the tested agents (the final concentration of the bacterial cells in all wells was approximately 5 × 10^5 CFU/mL).
# as §2, with “times. […]” for “times.”
# [4] = system: Escherichia coli K12; test: Antimicrobial activity, microdilution MIC, E. coli; format: cell-based; details: for MIC: Escherichia coli, K12, 24 h
# Protocol: as §1, §3
# as §2, with “times. […]” for “times.”
# [5] = system: human keratinocytes (HaCaT cell line); test: Cytotoxicity, MTT assay; format: cell-based; details: Homo sapiens, HaCaT, read-out: HaCaT IC50
# Protocol: To assess the cytotoxicity of QAS (IC50), the MTT assay on 96-well polystyrene plates was performed for human keratinocytes (HaCaT, Elabscience Biotechnology Inc., Houston, Texas, USA). The assay utilizes colorimetric determination of the cell metabolic activity and the color intensity reflects the number of live cells that can be measured spectrophotometrically. The cell line was cultured in a Dulbecco’s modified Eagle Medium (Invitrogen) supplemented with 10% fetal bovine serum (Sigma Aldrich) (v/v), 100 units/mL of penicillin, 100 μg/mL of streptomycin, and 2 mM L-glutamine and was stored at 37 °C in a humidified 5% CO2 incubator. Briefly, a day after plating of 500 cells per well, a series of concentrations (0.5–200 μg/mL) of the test compounds was applied. DMSO was added to the control cells at a final concentration of 1.0% (v/v), which was related to the maximal concentration of the solvent compounds used in the experiment. After 24 h of incubation with the QAS at 37 °C (humidified 5% CO2 incubator), a medium containing 1 mg/mL of MTT (3-(4,5-dimethylthiazol-2-yl)-2,5-diphenyltetrazolium bromide) was added to the wells up to a final concentration of 0.5 mg/mL. Subsequently, the plates were incubated at 37 °C for 4 h. Then, the medium was removed by suction, and the formazan product was solubilized with DMSO. The background absorbance at 630 nm was subtracted from that at 570 nm for each well (Epoch, BioTek Instruments, Winooski, VT, USA). Six replicates were conducted for each concentration. All experiments were repeated at least twice and the resulting IC50 values were calculated with GraFit 7 software (v. 7.0, Erithacus, Berkley, CA, USA).
# [6] = system: Salmonella typhimurium TA98 strain; details: TA98, no metabolic activation
# Protocol: A Salmonella mutagenicity test was performed with Salmonella typhimurium TA98 strain (Xenometrics AG, Allschwil, Switzerland) without metabolic activation, following the procedure by Mortelmans and Zeiger [52], with modifications reported Golunski et al. [53] […] Subsequently, the mixture was centrifuged, bacterial pellet washed with 0.75% NaCl and resuspended in 300 µL of 0.75% NaCl solution containing 0.1 µmol each of histidine and biotin, and it was then spread on a glucose minimal (GM) plate. […] All experiments were performed in triplicate. The anticancer drug doxorubicin at 90 ng/plate with known mutagenic effect towards S. typhimurium TA98 was used as a positive control.
# [7] = Solubility observed during assays; format: physicochemical; details: observed during antimicrobial assays; DMSO used for solubilisation
# [8] = MIC90, 24 h, RPMI, read-out: MIC C. albicans ATCC 10231
# [9] = MIC90, 24 h, RPMI, read-out: MIC C. glabrata DSMZ 11226
# [10] = MIC90, 24 h, MHB2, read-out: MIC S. aureus ATCC 25923
# [11] = MIC90, 24 h, MHB2, read-out: MIC E. coli K12
# [12] = read-out: MIC C. albicans ATCC 10231, MIC90, 24 h, RPMI
# [13] = read-out: MIC C. glabrata DSMZ 11226, MIC90, 24 h, RPMI
# [14] = read-out: MIC S. aureus ATCC 25923, MIC90, 24 h, MHB2
# [15] = read-out: MIC E. coli K12, MIC90, 24 h, MHB2
Structure (SMILES),"MIC [1, 8]","MIC C. albicans ATCC 10231 ([1]; MIC90, 24 h, RPMI)","MIC C. glabrata DSMZ 11226 ([2]; MIC90, 24 h, RPMI)","MIC [2, 9]","MIC S. aureus ATCC 25923 ([3]; MIC90, 24 h, MHB2)","MIC [3, 10]","MIC [4, 11]","MIC E. coli K12 ([4]; MIC90, 24 h, MHB2)","IC50 ([5]; MTT, 24 h incubation)",Number of Revertants ([6]; concentration 4 µg/plate),Number of Revertants ([6]; concentration 20 µg/plate),Number of Revertants ([6]; concentration 100 µg/plate),Number of Revertants ([6]; concentration 500 µg/plate),Number of Revertants ([6]; concentration 2000 µg/plate),also measured
"NC(=O)c1ccc[n+](C2COC3C2OCC3[n+]2cccc(C(N)=O)c2)c1 (as salt: methanesulfonate) [QAS 5, N,N’-(1,4:3,6-Dianhydro-2,5-dideoxy-L-iditol-2,5-diyl)-bis[(3-carboxamide)pyridinium] Ditrifluoromethanesulfonate]",,,,,,,,,,,,,,,melting point: 63.5 to 65.2 °C
c1cc[n+](C2COC3C2OCC3[n+]2ccccc2)cc1 (stereo not shown) [QAS 3],> 4000 µg/mL,>4096 µg/mL,>4096 µg/mL,> 4000 µg/mL,>4096 µg/mL,> 4000 µg/mL,> 4000 µg/mL,>4096 µg/mL,> 100 µg/mL,7.3 ± 2.5,11.0 ± 1.0,10.6 ± 2.1,8.7 ± 1.5,7.3 ± 2.5,
CN(C)c1cc[n+](C2COC3C2OCC3[n+]2ccc(N(C)C)cc2)cc1 (stereo not shown) [QAS 4],> 4000 µg/mL,>4096 µg/mL,>4096 µg/mL,> 4000 µg/mL,>4096 µg/mL,> 4000 µg/mL,> 4000 µg/mL,>4096 µg/mL,> 100 µg/mL,8.3 ± 0.6,9.7 ± 1.5,10.0 ± 2.6,7.0 ± 3.5,6.0 ± 2.6,
"NC(=O)c1ccc[n+](C2COC3C2OCC3[n+]2cccc(C(N)=O)c2)c1 [QAS 5, N,N’-(1,4:3,6-Dianhydro-2,5-dideoxy-L-iditol-2,5-diyl)-bis[(3-carboxamide)pyridinium] Ditrifluoromethanesulfonate]",> 4000 µg/mL,>4096 µg/mL,>4096 µg/mL,> 4000 µg/mL,>4096 µg/mL,> 4000 µg/mL,> 4000 µg/mL,>4096 µg/mL,> 100 µg/mL,14.3 ± 5.5,8.0 ± 3.5,12.0 ± 2.0,12.7 ± 2.5,11.0 ± 1.7,
"Cn1cc[n+](C2COC3C2OCC3[n+]2ccn(C)c2)c1 [QAS 6, N,N’-(1,4:3,6-Dianhydro-2,5-dideoxy-L-iditol-2,5-diyl)-bis(N-methylimidazolium) Ditrifluoromethanesulfonate]",> 4000 µg/mL,>4096 µg/mL,>4096 µg/mL,> 4000 µg/mL,>4096 µg/mL,> 4000 µg/mL,> 4000 µg/mL,>4096 µg/mL,> 100 µg/mL,13.3 ± 3.2,10.0 ± 2.0,9.0 ± 3.6,16.0 ± 6.2,13.7 ± 2.9,
C[N+](C)(C)C1COC2C1OCC2[N+](C)(C)C (stereo not shown) [QAS 7],,>4096 µg/mL,>4096 µg/mL,,>4096 µg/mL,,,>4096 µg/mL,,11.0 ± 3.0,10.7 ± 4.9,11.3 ± 3.5,13.7 ± 1.5,11.3 ± 3.2,"MIC [1, 12]: > 4000 µg/mL; MIC [2, 13]: > 4000 µg/mL; MIC [3, 14]: > 4000 µg/mL; MIC [4, 15]: > 4000 µg/mL; IC50 ([5]; 24 h): > 100 µg/mL"
"CCCCCC[N+](C)(C)C1COC2C1OCC2[N+](C)(C)CCCCCC [QAS 8, N,N’-(1,4:3,6-Dianhydro-2,5-dideoxy-L-iditol-2,5-diyl)-bis(N,N-dimethyl-N-hexylammonium) Ditrifluoromethanesulfonate]",,,2048 µg/mL,,2048 µg/mL,,,>4096 µg/mL,,14.7 ± 5.1,15.7 ± 1.5,11.0 ± 7.5,12.3 ± 3.5,12.7 ± 3.2,"MIC [1, 12]: > 4000 µg/mL; MIC [2, 13]: > 4000 µg/mL; MIC [3, 14]: > 4000 µg/mL; MIC [4, 15]: > 4000 µg/mL; IC50 ([5]; 24 h): > 100 µg/mL; Solubility in water [7]: lower solubility in water"
